Data published in patent publication US20220411362A1, “DITERPENOID COMPOUNDS THAT ACT ON PROTEIN KINASE C (PKC)” (K-Gen, Inc., priority 2019, published 2022).
Where two headings read alike, the source gives them in different places.

How the values were obtained:
C1b domain of human PKCδ = target: T1, C1b domain of human PKCδ (Homo sapiens, UniProt Q05655); test: Competitive 3H-PDBu binding to C1b domain of PKCδ; settings: Ki PKCδ, 3H-PDBu competition
T1 construct: Genes encoding C1b domains of human PKCα, δ, ε, θ, and PKD1 (PKCμ) were synthesized; made in house; host or cells: E. coli BL21(DE3)
T1 sequence (Q05655 230-280 limits assumed): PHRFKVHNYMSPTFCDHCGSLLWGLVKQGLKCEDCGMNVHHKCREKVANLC
Description: (§1) Compounds described in this disclosure were tested for binding affinity to C1b domain of PKC isoforms. Compound binding affinity to C1b domain of PKC isoforms was derived from competitive binding assay using radioactive tracer ^3H-PDBu and recombinant GST-C1b or full-length of human PKC proteins based on modified procedures from Methods in Molecular Biology, vol.
(§2) Genes encoding C1b domains of human PKCα, δ, ε, θ, and PKD1 (PKCμ) were synthesized and inserted into pGEX-2TK or pGEX-4T1 vectors for expression and production of GST-C1b proteins in E. coli BL21(DE3) via IPTG induction. The target proteins were purified by glutathione sepharose 4B and followed by ion exchange chromatography if needed to achieve purity >70%. Aliquots of the purified proteins were stored at −80 degree for binding assay (storage buffer: 20 mM Tris pH 8.0, 200 mM NaCl, 10% glycerol, 1 mM DTT).
(§3) The plate was incubated at 37° C. on a shaker at 300 rpm for 10 minutes and then put on ice for 20 minutes. […] The bottom of the filter plate was sealed and 50 μL of MicroScint-20 (PerkinElmer) cocktail was added to each well. ^3H-PDBu trapped in each well was counted using PerkinElmer MicroBeta2 Reader. Data were analyzed using GraphPad Prism5 with the model “log(inhibitor) vs. response-variable slope” to fit the IC50, and then IC50 was transformed to Ki using Cheng-Prusoff equation: Ki=IC50/(1+added radio ligand/Kd). Kd is the binding affinity of each protein preparation to ^3H-PDBu, determined experimentally.

C1b domain of human PKCα = target: T2, C1b domain of human PKCα (Homo sapiens, UniProt P17252); test: biochemical; format: binding; settings: Ki PKCα, 3H-PDBu competition
T2 construct: Genes encoding C1b domains of human PKCα, δ, ε, θ, and PKD1 (PKCμ) were synthesized; made in house; host or cells: E. coli BL21(DE3)
Description: as §1, §2
The plate was incubated at 37° C. on a shaker at 300 rpm for 10 minutes and then put on ice for 20 minutes. […] The bottom of the filter plate was sealed and 50 μL of MicroScint-20 (PerkinElmer) cocktail was added to each well. ^3H-PDBu trapped in each well was counted using PerkinElmer MicroBeta2 Reader. […] Kd is the binding affinity of each protein preparation to ^3H-PDBu, determined experimentally.

[1] = tested on: A549 non-small cell lung cancer cell line; test: Proliferation of A549 (CellTiter Glo); format: cell-based; settings: Homo sapiens, read-out: IC50 μM (A549 Cell Line)
Description: The diterpenoid compounds were tested in A549, a non-small cell lung cancer cell line harboring a K-Ras activating mutation. Briefly, A549 cells at a density of 1,000 cells/well were seeded in 96-well plates and incubated at 37° C. for 24 hours. A series of different concentrations of compound stocks (500×) were prepared by 3-fold serial dilution in DMSO. These compounds were further diluted in culture media and then added to cells so that the final DMSO concentration was not exceeding 0.25%. After 96 hours of incubation, 50 μL of CellTiter Glo reagent (Promega) was added to each well and luminescence was measured after 10 minutes using EnVision (PerkinElmer). Luminescence from cells treated with DMSO alone was set as Max and % of inhibition was calculated as follows: Inhibition %=(Max−Sample value)/Max×100. Data was analyzed using XL-fit software (ID Business Solutions Ltd.) and IC50, relative IC50, and % of top inhibition was calculated. Some of the compounds in this disclosure were very potent in blocking proliferation of A549 lung cancer cells at low nM range. In addition, potency of inhibiting A549 proliferation correlated well with its binding affinity to PKCs for this series of compounds. In other words, higher affinity binders had stronger inhibitory effects on A549 proliferation. This further support the notion that activation, rather than inhibition, of certain PKC isoforms is required to block proliferation of cancer cells, some of which may harbor K-Ras mutations. This is in sharp contrast to previous literature and common belief that inhibition of PKC is necessary to block cancer cell growth (Kang, 2014, New Journal of Science, 2014:1-36). Data presented here is in agreement with recent findings that many loss-of-function but not gain-of-function mutations of PKC isoforms have been identified in many human cancers (Antal et al., 2015, Cell, 160:489-502).

[2] = target: T3, C1b domain of human PKD1 (PKCμ) (Homo sapiens, UniProt Q15139); test: biochemical; format: binding
T3 construct: Genes encoding C1b domains of human PKCα, δ, ε, θ, and PKD1 (PKCμ) were synthesized; made in house; host or cells: E. coli BL21(DE3)
T3 sequence (Q15139 270-320 limits assumed): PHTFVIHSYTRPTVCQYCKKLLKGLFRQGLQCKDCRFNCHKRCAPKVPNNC
Description: as §1, §2, §3

[3] = A549, 96 hours incubation, CellTiter Glo

Row | SMILES | Ki (C1b domain of human PKCδ) [nM] | Ki (C1b domain of human PKCα) [nM] | IC50 ([1]; A549, 96 h) [µM] | Ki [2] [nM] | IC50 [1, 3] [µM]
1 | CSC[C@H](N)C(=O)O[C@@]12C[C@@H](C)[C@@]3(O)[C@@H](C=C(CO)C[C@]4(O)C(=O)C(C)=C[C@@H]34)[C@@H]1C2(C)C [Compound K101-C1339] | 200 to 400 | 4000 to 6000 | 5 to 10 | – | –
2 | CC1=C[C@H]2[C@@]3(O)[C@H](C)C[C@]4(OC(=O)[C@@H](N)Cc5c[nH]c6ccccc56)[C@H]([C@@H]3C=C(CO)C[C@]2(O)C1=O)C4(C)C [Compound K101-C1340] | 1 to 30 | 200 to 400 | 10 to 30 | 5 to 10 | –
3 | CC1=C[C@H]2[C@@]3(O)[C@H](C)C[C@]4(OC(=O)[C@H](N)Cc5c[nH]c6ccccc56)[C@H]([C@@H]3C=C(CO)C[C@]2(O)C1=O)C4(C)C [Compound K101-C1341] | 30 to 60 | 1000 to 2000 | 10 to 30 | 1 to 30 | –
4 | CC1=C[C@H]2[C@@]3(O)[C@H](C)C[C@]4(OC(=O)C[C@H](N)c5ccccc5)[C@H]([C@@H]3C=C(CO)C[C@]2(O)C1=O)C4(C)C [Compound K101-C1343] | 30 to 60 | 1000 to 2000 | 1 to 2 | 1 to 30 | –
5 | CC1=C[C@H]2[C@@]3(O)[C@H](C)C[C@]4(OC(=O)C[C@@H](N)Cc5ccccc5)[C@H]([C@@H]3C=C(CO)C[C@]2(O)C1=O)C4(C)C [Compound K101-C1344] | 30 to 60 | 1000 to 2000 | 1 to 2 | 1 to 30 | –
6 | CC1=C[C@H]2[C@@]3(O)[C@H](C)C[C@]4(OC(=O)[C@H](O)Cc5ccccc5)[C@H]([C@@H]3C=C(CO)C[C@]2(O)C1=O)C4(C)C [Compound K101-C1355] | 100 to 200 | – | 2 to 5 | 30 to 60 | –
7 | CN[C@@H](CC1CCCCC1)C(=O)O[C@@]12C[C@@H](C)[C@@]3(O)[C@@H](C=C(CO)C[C@]4(O)C(=O)C(C)=C[C@@H]34)[C@@H]1C2(C)C [Compound K101-C1364] | 1 to 30 | 200 to 400 | 0.2 to 0.6 | – | –
8 | CC1=C[C@H]2[C@@]3(O)[C@H](C)C[C@]4(OC(=O)[C@@H](N)C56CC(C(F)(F)F)(C5)C6)[C@H]([C@@H]3C=C(CO)C[C@]2(O)C1=O)C4(C)C [Compound K101-C1375] | – | – | – | – | 0.06 to 0.1
9 | CC1=C[C@H]2[C@@]3(O)[C@H](C)C[C@]4(OC(=O)[C@@H](N)CCc5ccccc5)[C@H]([C@@H]3C=C(CO)C[C@]2(O)C1=O)C4(C)C [Compound K101-C135602] | 1 to 30 | 200 to 400 | – | – | –
10 | CC1=C[C@H]2[C@@]3(O)[C@H](C)C[C@]4(OC(=O)[C@H](N)C56CC(F)(C5)C6)[C@H]([C@@H]3C=C(CO)C[C@]2(O)C1=O)C4(C)C [Compound K101-C137301] | – | – | – | – | 10 to 30
11 | CC1=C[C@H]2[C@@]3(O)[C@H](C)C[C@]4(OC(=O)[C@@H](N)C56CC(F)(C5)C6)[C@H]([C@@H]3C=C(CO)C[C@]2(O)C1=O)C4(C)C [Compound K101-C137302] | – | – | – | – | 10 to 30
12 | CC1=C[C@H]2[C@@]3(O)[C@H](C)C[C@]4(OC(=O)[C@@H](N)C5Cc6ccccc6C5)[C@H]([C@@H]3C=C(CCl)C[C@]2(O)C1=O)C4(C)C [K101-C1329-Cl] | – | – | – | – | 0.06 to 0.1
13 | CC1=C[C@H]2[C@@]3(O)[C@H](C)C[C@]4(OC(=O)[C@H](N)CCCCCCc5ccccc5)[C@H]([C@@H]3C=C(COC(=O)[C@@H](N)C(C)C)C[C@]2(O)C1=O)C4(C)C [K101-C134801C2003] | – | – | – | – | 0.03 to 0.06
